The record followed here is patent publication US12116362B2, “Monocyclic compounds useful as GPR120 modulators” (Valo Health, Inc., priority 2016, dated 2024).

Experiment [1] addresses T1, human GPR120 (Homo sapiens, UniProt Q5NUL3).
T1 construct: expressed in transfected cells; host or cells: CHO-K1 coexpressing Gα16 and mitochondrial apoaequorin
T1 sequence (Q5NUL3 1-361): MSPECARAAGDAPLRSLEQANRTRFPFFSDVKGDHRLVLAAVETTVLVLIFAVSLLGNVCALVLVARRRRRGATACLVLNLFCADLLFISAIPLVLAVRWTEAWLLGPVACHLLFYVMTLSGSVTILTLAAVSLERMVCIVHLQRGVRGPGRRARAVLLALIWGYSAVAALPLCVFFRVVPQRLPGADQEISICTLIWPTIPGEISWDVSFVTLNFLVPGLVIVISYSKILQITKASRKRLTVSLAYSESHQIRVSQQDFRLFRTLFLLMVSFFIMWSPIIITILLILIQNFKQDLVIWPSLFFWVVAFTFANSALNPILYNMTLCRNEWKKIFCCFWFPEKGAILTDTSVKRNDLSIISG
The experiment in a line: Human GPR120 Calcium-Release Assay (aequorin luminescence, CHO-K1 cells). Format: cell-based. As to conditions: pEC50=−log(EC50) from curve fit; short variant of human GPR120 in CHO-K1 with Gα16 and apoaequorin; read-out: Ca2+ pEC50 (converted). An excerpt: This in vitro assay tests compounds' ability to activate heterologously expressed human GPR120 via G-protein coupling leading to generation of inositol 1,4,5-triphosphate and mobilization of intracellular calcium. This functional cellular assay is based on the luminescence of mitochondrial aequorin following intracellular Ca^2+ release. Aequorin is a photoprotein isolated from the jellyfish Aequorea victoria. The active protein is formed in the presence of molecular oxygen from apoaequorin and its cofactor coelenterazine. Binding of Ca^2+ to the active protein induces a conformational change, resulting in oxidation of coelenterazine and subsequent blue luminescence.
The short variant of the human GPR120 receptor (GenBank accession Number AAI01176) was stably expressed in a CHO-K1 cell line coexpressing Gα16 and mitochondrial apoaequorin.
Cells were grown to mid-log phase in culture media without antibiotics, were detached with PBS/EDTA, centrifuged and resuspended in assay buffer (DMEM-F12 medium with 15 mM HEPES pH 7.0 and 0.1% protease free BSA) at a concentration of 10^6 cells/mL. Cells were incubated at room temperature for at least 4 hours with 5 μM coelenterazine h.
Test compounds were dissolved in 100% DMSO to a concentration of 20 mM to provide stock solutions. Serial dilutions were performed from stock solutions in 100% DMSO to obtain intermediate concentrations 200-fold higher than the concentrations to be tested. Each sample was diluted 100-fold into assay buffer. 50 μl of these compound solutions were dispensed into each well of 96-well assay plates. The final concentration of compounds tested in the assay ranged from 5 nM to 100 μM. α-Linolenic acid was used as a reference compound. Each test was performed in duplicate.
To start the assay, 50 μl of cell suspension were added to each well of the assay plate. The resulting luminescence was recorded using a Hamamatsu Functional Drug Screening System 6000 (FDSS 6000), and raw data were expressed as relative light units (RLU).
(§1) To determine agonist potencies (EC50 values), non-linear least-squares curve fits of the raw data (RLU) were performed in the GraphPad Prism software package, using the 4-parameter model with variable Hill Slope:
Reported below in Table 1 are pEC50 values (pEC50=−log(EC50) from curve fit) for representative compounds of Formula I in this assay, Ca2+pEC50.

For experiment [2], the target named is T2, human GPR120 (Homo sapiens, UniProt Q5NUL3).
T2 construct: host or cells: CHO-K1
The experiment in a line: GPR120 β-Arrestin Recruitment Assay (PathHunter, CHO-K1 cells). Format: cell-based. The settings on record: pEC50=−log(EC50) from curve fit, CHO-K1 cells, 90 min incubation; for EC50: read-out: β-Arr pEC50 (converted).
From the text: This in vitro assay tests compounds' ability to activate intracellular signaling via 3-Arrestin recruitment to heterologously expressed human GPR120. This functional cellular assay utilizes enzyme fragment complementation with β-galactosidlase (β-gal) as a functional reporter (DiscoveRx PathlHunter® β-Arrestin assay platform). The human (GPR120 receptor (GenBank accession Number NM_181745) was fused in frame with the small enzyme fragment ProLink™ and co-expressed in CHO-K1 cells with a fusion protein of β-Arrestin 2 and the larger, N-terminal deletion mutant of β-gal. Activation by a GPR120 agonist stimulates binding of β-arrestin to the ProLink-tagged GPCR and forces complementation of the two enzyme fragments, resulting in the formation of an active β-gal enzyme. This interaction leads to an increase in enzyme activity that can be measured using chemiluminescent PathHunter® Detection Reagents.
One day prior to the assay, cells were seeded in a total volume of 20 μl of growth medium into white walled 384-well microplates and incubated at 37° C./5% CO2 overnight. On the day of the assay, growth medium was removed and 20 μl assay buffer (HBSS+10 mM HEPES+0.1% heat-inactivated BSA) were added to each well.
Test compounds were dissolved in 100% DMSO to a concentration of 10 mM to provide stock solutions. Serial dilutions were performed from stock solutions into assay buffer to obtain intermediate concentrations of 5-fold higher than the concentrations to be tested. 5 μl of the 5× compound solutions were added to the cells and the assay plates were incubated at 37° C. for 90 minutes. The final concentration of compounds tested in the assay ranged from 1.5 nM to 100 μM. Following incubation, 12.5 μl of PathHunter® detection reagent were added to each well, and plates were incubated at room temperature for 60 minutes. Chemiluminescence was read using an EnVision plate reader (PerkinElmer), raw data were expressed as relative light units (RLU).
as §1
T2 sequence (Q5NUL3 1-377 isoform Q5NUL3-1): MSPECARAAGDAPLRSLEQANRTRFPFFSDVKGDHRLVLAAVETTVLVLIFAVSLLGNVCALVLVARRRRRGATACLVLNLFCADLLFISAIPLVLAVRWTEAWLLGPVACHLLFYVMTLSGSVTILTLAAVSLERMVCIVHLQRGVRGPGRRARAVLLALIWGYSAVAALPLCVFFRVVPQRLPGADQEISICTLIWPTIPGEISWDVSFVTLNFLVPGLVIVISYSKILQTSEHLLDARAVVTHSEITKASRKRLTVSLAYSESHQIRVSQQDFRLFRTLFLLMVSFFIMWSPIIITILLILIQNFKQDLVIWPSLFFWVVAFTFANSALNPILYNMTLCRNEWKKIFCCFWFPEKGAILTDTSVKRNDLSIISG
T2 sequence (P32121 whole entry partner): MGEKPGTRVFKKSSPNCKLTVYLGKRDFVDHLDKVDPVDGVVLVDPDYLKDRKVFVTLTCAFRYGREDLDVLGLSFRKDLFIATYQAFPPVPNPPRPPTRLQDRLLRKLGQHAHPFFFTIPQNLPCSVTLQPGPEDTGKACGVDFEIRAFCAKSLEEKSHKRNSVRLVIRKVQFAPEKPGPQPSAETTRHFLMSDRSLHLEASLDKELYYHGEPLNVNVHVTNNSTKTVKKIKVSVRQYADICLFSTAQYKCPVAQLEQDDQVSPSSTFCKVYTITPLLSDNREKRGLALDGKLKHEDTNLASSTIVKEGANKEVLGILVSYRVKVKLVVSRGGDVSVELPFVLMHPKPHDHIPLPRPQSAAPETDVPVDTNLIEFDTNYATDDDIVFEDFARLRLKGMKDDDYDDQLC
Reported below in Table 1 are pEC50 values (pEC50=−log(EC50) from curve fit) for compounds of Formula I in this assay, β-Arr pEC50 Alternatively, percent activation at a single concentration is reported.
On the technique in general: Recruitment of arrestin is a read-out of receptor activation apart from second messengers.

For `O=S1(=O)c2ccccc2CN1c1ccnc(Oc2cccnc2)n1` [Compound 1], the EC50 on human GPR120 [1] was 7940 nM. On to `O=S1(=O)c2ccccc2CN1c1ccnc(Oc2ccccc2)n1` [Compound 16], for which the values for the EC50 at human GPR120 [1] and at human GPR120 [2] were 1260 nM and 6310 nM, respectively. The like results for `Cc1cncc(Oc2nccc(N3Cc4ccccc4S3(=O)=O)n2)c1` [Compound 19] were, in that order, 794 nM and 5010 nM. On to `O=S1(=O)c2ccccc2CN1c1ccnc(Oc2ccccc2Cl)n1` [Compound 20], for which the EC50 at human GPR120 [1] was 3980 nM; on human GPR120 [2], 6310 nM. Turning to `O=S1(=O)c2ccccc2CN1c1ccnc(Oc2ccc(Cl)cc2)n1` [Compound 21], the EC50 on human GPR120 [1] was 501 nM; on human GPR120 [2], over 7940 nM.

On to `O=S1(=O)c2ccccc2CN1c1ccnc(Oc2cccc(Cl)c2)n1` [Compound 22], for which the EC50 at human GPR120 [1] is over 100000 nM; at human GPR120 [2], 1580 nM. Consider `O=S1(=O)c2ccccc2CN1c1ccnc(Oc2ccc(Cl)c(Cl)c2)n1` [Compound 33], for which the EC50 on human GPR120 [1] was over 100000 nM. As for `Cc1ccc(Oc2nccc(N3Cc4ccccc4S3(=O)=O)n2)cc1Cl` [Compound 34], the EC50 at human GPR120 [1] is 200 nM; on human GPR120 [2], 1580 nM. For `Cc1cc(Oc2nccc(N3Cc4ccccc4S3(=O)=O)n2)ccc1Cl` [Compound 35], the EC50 at human GPR120 [1] is over 100000 nM; at human GPR120 [2] it was 1580 nM. Turning to `O=S1(=O)c2ccccc2CN1c1ccnc(Oc2ccc(OC(F)(F)F)cc2Cl)n1` [Compound 36], the EC50 is 7940 nM at human GPR120 [1] and 631 nM at human GPR120 [2].

On to `O=S1(=O)c2ccccc2CN1c1ccnc(Oc2cccc(F)c2)n1` [Compound 37], for which the EC50 at human GPR120 [1] is 200 nM; on human GPR120 [2], 1000 nM. As for `O=S1(=O)c2ccccc2CN1c1ccnc(Oc2ccc(Br)cc2)n1` [Compound 41], the EC50 at human GPR120 [1] is 794 nM; at human GPR120 [2] it was 2510 nM. For `O=S1(=O)c2ccccc2CN1c1ccnc(Oc2ccc(F)cc2)n1` [Compound 42], the EC50 on human GPR120 [1] is 316 nM; at human GPR120 [2], 1000 nM. `COc1ccc(Oc2nccc(N3Cc4ccccc4S3(=O)=O)n2)cc1` [Compound 44]: the values for the EC50 at human GPR120 [1] and at human GPR120 [2] were 1580 nM and over 10000 nM, respectively.

For `O=S1(=O)c2ccccc2CN1c1ccnc(Oc2ccc(OCc3ccccc3)cc2)n1` [Compound 45], the results for the EC50 on human GPR120 [1] and at human GPR120 [2] were over 100000 nM and 1580 nM, respectively. With `COc1cncc(Oc2nccc(N3Cc4ccccc4S3(=O)=O)n2)c1` [Compound 50], the EC50 at human GPR120 [1] was 6310 nM; at human GPR120 [2] it was 5010 nM. Regarding `O=S1(=O)c2ccccc2CN1c1ccnc(Oc2cncc(Cl)c2)n1` [Compound 51], on human GPR120 [1], the EC50 is 1000 nM. For the molecule `O=S1(=O)c2ccccc2CN1c1ccnc(Oc2ccccc2F)n1` [Compound 56], the figures for the EC50 at human GPR120 [1] and at human GPR120 [2] were 794 nM and over 10000 nM, respectively.

For the molecule `O=S1(=O)c2ccccc2CN1c1ccnc(OC2CCC2)n1` [Compound 58], the EC50 on human GPR120 [1] was 631 nM; on human GPR120 [2], 2510 nM.

For `O=S1(=O)c2ccccc2CN1c1ccnc(OC2CCCCC2)n1` [Compound 59], the EC50 on human GPR120 [1] is 12600 nM; at human GPR120 [2] it was 6310 nM.

Take `O=S1(=O)c2ccccc2CN1c1ccnc(OC2CCCC2)n1` [Compound 60]: the values for the EC50 on human GPR120 [1] and on human GPR120 [2] were 501 nM and 1580 nM, respectively. The corresponding values for `CN1CC(Oc2nccc(N3Cc4ccccc4S3(=O)=O)n2)C1` [Compound 61] are over 100000 nM and over 31600 nM. For `COc1cc(N2Cc3ccccc3S2(=O)=O)nc(OC2CC(F)(F)C2)n1` [Compound 93], the EC50 at human GPR120 [1] is 631 nM. On to `CC(=O)N1CCC(Oc2nccc(N3Cc4ccccc4S3(=O)=O)n2)CC1` [Compound 111], for which the EC50 at human GPR120 [2] was over 10000 nM.

For the molecule `CC(=O)N1CCC(Oc2nccc(N3Cc4ccccc4S3(=O)=O)n2)C1` (stereo not drawn) [Compound 112], the EC50 at human GPR120 [2] is over 31600 nM. Take `O=C1c2cccc(Br)c2CN1c1ccnc(Oc2cccnc2)n1` [Compound 113]: the EC50 on human GPR120 [2] is 12600 nM. Consider `Cc1cc(Oc2cccnc2)nc(N2Cc3ccccc3S2(=O)=O)n1` [Compound 115], for which, on human GPR120 [2], the EC50 was 6310 nM. As for `COc1ccc2c(c1)CN(c1nccc(Oc3cccnc3)n1)S2(=O)=O` [Compound 116], the EC50 at human GPR120 [2] was 39800 nM. Still for that read-out and setting: for `O=C1c2ccccc2CN1c1nccc(Oc2cccnc2)n1` [Compound 117] the value was over 10000 nM. Regarding `Cc1cccc2c1CN(c1nccc(Oc3cccnc3)n1)C2` [Compound 118], the EC50 on human GPR120 [2] is 1000 nM. Consider `O=C1Cc2ccccc2N1c1nccc(Oc2cccnc2)n1` [Compound 120], for which, on human GPR120 [2], the EC50 is over 31600 nM. With `O=S1(=O)c2ccccc2CN1c1cccc(Oc2ccccc2Cl)n1` [Compound 124], the EC50 at human GPR120 [2] was over 31600 nM.

Turning to `O=S1(=O)c2ccccc2CN1c1cccc(OC2CCC2)n1` [Compound 126], the EC50 on human GPR120 [2] is over 31600 nM.

For the molecule `O=C1c2ncccc2CN1c1cccc(Oc2cccnc2)n1` [Compound 127], the EC50 on human GPR120 [2] was over 31600 nM. As for `O=C1c2ccccc2CN1c1cccc(Oc2cccc(Cl)c2)n1` [Compound 130], the EC50 at human GPR120 [2] is over 31600 nM. In the case of `COc1ccc2c(c1)S(=O)(=O)N(c1cccc(Oc3cccnc3)n1)C2` [Compound 132], the EC50 on human GPR120 [2] is over 31600 nM. `COc1ccc2c(c1)CN(c1cccc(Oc3cccnc3)n1)S2(=O)=O` [Compound 133]: the EC50 at human GPR120 [2] is over 31600 nM. On to `Cc1cc(Oc2cccnc2)nc(N2Cc3cccnc3C2=O)c1` [Compound 135], for which the EC50 on human GPR120 [2] is over 10000 nM.

Take `Cc1cc(Oc2cccnc2)nc(N2Cc3ccccc3S2(=O)=O)c1` [Compound 136]: the EC50 on human GPR120 [2] is 631 nM.

For the molecule `CNC(=O)c1cc(Oc2ccc(Cl)cc2)nc(N2Cc3ccccc3S2(=O)=O)c1` [Compound 137], the EC50 at human GPR120 [2] is 2510 nM. As to `CC(=O)Nc1cc(Oc2ccc(Cl)cc2)nc(N2Cc3ccccc3S2(=O)=O)c1` [Compound 138], at human GPR120 [2], the EC50 is 3160 nM. Turning to `CN(C)C(=O)c1cc(Oc2ccc(Cl)cc2)nc(N2Cc3ccccc3S2(=O)=O)c1` [Compound 139], the EC50 on human GPR120 [2] is over 10000 nM. As for `O=S1(=O)c2ccccc2CN1c1cc(C(F)(F)F)cc(Oc2cccnc2)n1` [Compound 140], the EC50 at human GPR120 [2] was 1000 nM. Take `O=S1(=O)c2ccccc2CN1c1cc(C(F)(F)F)cc(OC2CC(F)(F)C2)n1` [Compound 141]: at human GPR120 [2], the EC50 was 6310 nM. Take `Cc1nc(Oc2ccc(Cl)cc2)nc(N2Cc3ccccc3S2(=O)=O)n1` [Compound 143]: at human GPR120 [2], the “β-Arr pEC50” value was under 4.5. As for `Cc1nc(Oc2ccc(Cl)cc2)nc(N2Cc3ccccc3S2(=O)=O)n1` [Compound 144], the EC50 on human GPR120 [2] is 2000 nM. Same read-out and setting: for `O=S1(=O)c2ccccc2CN1c1ncnc(Oc2cccnc2)n1` [Compound 146] the value was 15800 nM.
